Test results from ChEMBL document CHEMBL5523732, “Structure-Guided Design of Potent Coronavirus Inhibitors with a 2-Pyrrolidone Scaffold: Biochemical, Crystallographic, and Virological Studies” (J Med Chem, 2024).

Test system: not listed separately
Assay: Cytotoxicity against cat CRFK cells incubated for 72 hrs by CytoTox 96 analysis
Format: toxicity, cell-based, Felis catus
Conditions: not given

SMILES | CC50 at 72 h [µM]
CC(C)C[C@H](NC(=O)OCC1CC(=O)N(Cc2ccccc2)C1)C(=O)N[C@@H](C[C@@H]1CCNC1=O)C(O)S(=O)(=O)O (some centres undefined) | > 50
CC(C)C[C@H](NC(=O)OCC1CC(=O)N(CC2CC3CCC2C3)C1)C(=O)N[C@@H](C[C@@H]1CCNC1=O)C(O)S(=O)(=O)O (some centres undefined) | > 50
CC(C)C[C@H](NC(=O)OC[C@@H]1CCC(=O)N1CC1CCC(F)(F)CC1)C(=O)N[C@@H](C[C@@H]1CCNC1=O)C(O)S(=O)(=O)O (some centres undefined) | > 50
CC(C)C[C@H](NC(=O)OC[C@@H]1CCC(=O)N1C[C@H]1C[C@@H]2C=C[C@H]1C2)C(=O)N[C@H](C=O)C[C@@H]1CCNC1=O | > 50
CC(C)C[C@H](NC(=O)OC[C@@H]1CCC(=O)N1Cc1ccccc1)C(=O)N[C@@H](C[C@@H]1CCNC1=O)C(O)S(=O)(=O)O (some centres undefined) | > 50
CC(C)C[C@H](NC(=O)OC[C@@H]1CCC(=O)N1C[C@H]1C[C@@H]2CC[C@H]1C2)C(=O)N[C@@H](C[C@@H]1CCNC1=O)C(O)S(=O)(=O)O (some centres undefined) | > 50
CC(C)C[C@H](NC(=O)OCC1CC(=O)N(Cc2cccc(C(F)(F)F)c2)C1)C(=O)N[C@@H](C[C@@H]1CCNC1=O)C(O)S(=O)(=O)O (some centres undefined) | > 50
CC(C)C[C@H](NC(=O)OC[C@@H]1CCC(=O)N1CC1CCC(F)(F)CC1)C(=O)N[C@H](C=O)C[C@@H]1CCNC1=O | > 50
CC(C)C[C@H](NC(=O)OC[C@@H]1CCC(=O)N1C[C@H]1C[C@@H]2C=C[C@H]1C2)C(=O)N[C@@H](C[C@@H]1CCNC1=O)C(O)S(=O)(=O)O (some centres undefined) | > 50
CC(C)C[C@H](NC(=O)OCC1CCN(CC2CCCCC2)C1=O)C(=O)N[C@H](C=O)C[C@@H]1CCNC1=O (some centres undefined) | > 50
CC(C)C[C@H](NC(=O)OC[C@@H]1CCC(=O)N1CCc1ccccc1)C(=O)N[C@H](C=O)C[C@@H]1CCNC1=O | > 50
CC(C)C[C@H](NC(=O)OCC1CC(=O)N(Cc2ccco2)C1)C(=O)N[C@H](C=O)C[C@@H]1CCNC1=O (some centres undefined) | > 50
CC(C)C[C@H](NC(=O)OC[C@@H]1CCC(=O)N1CCC1CCCCC1)C(=O)N[C@H](C=O)C[C@@H]1CCNC1=O | > 50
CC(C)C[C@H](NC(=O)OCC1CCN(Cc2ccccc2)C1=O)C(=O)N[C@@H](C[C@@H]1CCNC1=O)C(O)S(=O)(=O)O (some centres undefined) | > 50
CC(C)C[C@H](NC(=O)OCC1CCN(Cc2ccco2)C1=O)C(=O)N[C@@H](C[C@@H]1CCNC1=O)C(O)S(=O)(=O)O (some centres undefined) | > 50
CC(C)C[C@H](NC(=O)OCC1CCN(C[C@H]2C[C@H]3CC[C@@H]2C3)C1=O)C(=O)N[C@@H](C[C@@H]1CCNC1=O)C(O)S(=O)(=O)O (some centres undefined) | > 50
CC(C)C[C@H](NC(=O)OCC1CCN(C[C@H]2C[C@H]3CC[C@@H]2C3)C1=O)C(=O)N[C@H](C=O)C[C@@H]1CCNC1=O (some centres undefined) | > 50
CC(C)C[C@H](NC(=O)OC[C@@H]1CCC(=O)N1Cc1ccco1)C(=O)N[C@H](C=O)C[C@@H]1CCNC1=O | > 50
CC(C)C[C@H](NC(=O)OC[C@H]1CCC(=O)N1CC1CCCCC1)C(=O)N[C@@H](C[C@@H]1CCNC1=O)C(O)S(=O)(=O)O (some centres undefined) | > 50

Target: Replicase polyprotein 1ab (Severe acute respiratory syndrome coronavirus 2, UniProt P0DTD1)
Assay: Inhibition of full length N-terminal his6-tagged SARS-CoV-2 3CL protease using FAM-SAVLQ as substrate preincubated with compound for 30 mins followed by substrate addition and measured after 30 mins by FRET assay
Conditions: not given

SMILES | IC50 [µM]
CC(C)C[C@H](NC(=O)OCC1CC(=O)N(Cc2ccccc2)C1)C(=O)N[C@@H](C[C@@H]1CCNC1=O)C(O)S(=O)(=O)O (some centres undefined) | 0.65
CC(C)C[C@H](NC(=O)OCC1CC(=O)N(CC2CC3CCC2C3)C1)C(=O)N[C@@H](C[C@@H]1CCNC1=O)C(O)S(=O)(=O)O (some centres undefined) | 0.17
CC(C)C[C@H](NC(=O)OC[C@@H]1CCC(=O)N1CC1CCC(F)(F)CC1)C(=O)N[C@@H](C[C@@H]1CCNC1=O)C(O)S(=O)(=O)O (some centres undefined) | 0.54
CC(C)C[C@H](NC(=O)OC[C@@H]1CCC(=O)N1C[C@H]1C[C@@H]2C=C[C@H]1C2)C(=O)N[C@H](C=O)C[C@@H]1CCNC1=O | 0.418
CC(C)C[C@H](NC(=O)OC[C@@H]1CCC(=O)N1Cc1ccccc1)C(=O)N[C@@H](C[C@@H]1CCNC1=O)C(O)S(=O)(=O)O (some centres undefined) | 0.49
CC(C)C[C@H](NC(=O)OC[C@@H]1CCC(=O)N1C[C@H]1C[C@@H]2CC[C@H]1C2)C(=O)N[C@@H](C[C@@H]1CCNC1=O)C(O)S(=O)(=O)O (some centres undefined) | 0.41
CC(C)C[C@H](NC(=O)OCC1CC(=O)N(Cc2cccc(C(F)(F)F)c2)C1)C(=O)N[C@@H](C[C@@H]1CCNC1=O)C(O)S(=O)(=O)O (some centres undefined) | 0.35
CC(C)C[C@H](NC(=O)OC[C@@H]1CCC(=O)N1CC1CCC(F)(F)CC1)C(=O)N[C@H](C=O)C[C@@H]1CCNC1=O | 0.55
CC(C)C[C@H](NC(=O)OC[C@@H]1CCC(=O)N1C[C@H]1C[C@@H]2C=C[C@H]1C2)C(=O)N[C@@H](C[C@@H]1CCNC1=O)C(O)S(=O)(=O)O (some centres undefined) | 0.45
CC(C)C[C@H](NC(=O)OCC1CCN(CC2CCCCC2)C1=O)C(=O)N[C@H](C=O)C[C@@H]1CCNC1=O (some centres undefined) | 0.23
CC(C)C[C@H](NC(=O)OC[C@@H]1CCC(=O)N1CCc1ccccc1)C(=O)N[C@H](C=O)C[C@@H]1CCNC1=O | 0.73
CC(C)C[C@H](NC(=O)OCC1CC(=O)N(Cc2ccco2)C1)C(=O)N[C@H](C=O)C[C@@H]1CCNC1=O (some centres undefined) | 0.55
CC(C)C[C@H](NC(=O)OC[C@@H]1CCC(=O)N1CCC1CCCCC1)C(=O)N[C@H](C=O)C[C@@H]1CCNC1=O | 0.5
CC(C)C[C@H](NC(=O)OCC1CCN(Cc2ccccc2)C1=O)C(=O)N[C@@H](C[C@@H]1CCNC1=O)C(O)S(=O)(=O)O (some centres undefined) | 0.82
CC(C)C[C@H](NC(=O)OCC1CCN(Cc2ccco2)C1=O)C(=O)N[C@@H](C[C@@H]1CCNC1=O)C(O)S(=O)(=O)O (some centres undefined) | 2.01
CC(C)C[C@H](NC(=O)OCC1CCN(C[C@H]2C[C@H]3CC[C@@H]2C3)C1=O)C(=O)N[C@@H](C[C@@H]1CCNC1=O)C(O)S(=O)(=O)O (some centres undefined) | 0.51
CC(C)C[C@H](NC(=O)OCC1CCN(C[C@H]2C[C@H]3CC[C@@H]2C3)C1=O)C(=O)N[C@H](C=O)C[C@@H]1CCNC1=O (some centres undefined) | 0.43
CC(C)C[C@H](NC(=O)OC[C@@H]1CCC(=O)N1Cc1ccco1)C(=O)N[C@H](C=O)C[C@@H]1CCNC1=O | 0.33
CC(C)C[C@H](NC(=O)OC[C@H]1CCC(=O)N1CC1CCCCC1)C(=O)N[C@@H](C[C@@H]1CCNC1=O)C(O)S(=O)(=O)O (some centres undefined) | 0.51

Test system: SARS-CoV-2
Assay: Antiviral activity against SARS CoV-2 Wuhan-Hu-1 infected in HEK293T cells incubated for 24 hrs
Format: functional, organism-based
Conditions: Severe acute respiratory syndrome coronavirus 2, Wuhan-Hu-1, HEK-293T

SMILES | EC50 [µM]
CC(C)C[C@H](NC(=O)OCC1CC(=O)N(CC2CC3CCC2C3)C1)C(=O)N[C@@H](C[C@@H]1CCNC1=O)C(O)S(=O)(=O)O (some centres undefined) | 0.08
CC(C)C[C@H](NC(=O)OCC1CCN(CC2CCCCC2)C1=O)C(=O)N[C@H](C=O)C[C@@H]1CCNC1=O (some centres undefined) | 0.02

Test system: not listed separately
Assay: Inhibition of MERS-CoV 3CLpro using SG-QXL520 as substrate preincubated with compound for 30 mins followed by susbtrate addition and measured after 30 mins by FRET assay
Design: species or system Middle East respiratory syndrome-related coronavirus
Conditions: not given

SMILES | IC50 [µM]
CC(C)C[C@H](NC(=O)OCC1CC(=O)N(Cc2ccccc2)C1)C(=O)N[C@@H](C[C@@H]1CCNC1=O)C(O)S(=O)(=O)O (some centres undefined) | 0.05
CC(C)C[C@H](NC(=O)OCC1CC(=O)N(CC2CC3CCC2C3)C1)C(=O)N[C@@H](C[C@@H]1CCNC1=O)C(O)S(=O)(=O)O (some centres undefined) | 0.07
CC(C)C[C@H](NC(=O)OC[C@@H]1CCC(=O)N1CC1CCC(F)(F)CC1)C(=O)N[C@@H](C[C@@H]1CCNC1=O)C(O)S(=O)(=O)O (some centres undefined) | 0.06
CC(C)C[C@H](NC(=O)OC[C@@H]1CCC(=O)N1C[C@H]1C[C@@H]2C=C[C@H]1C2)C(=O)N[C@H](C=O)C[C@@H]1CCNC1=O | 0.06
CC(C)C[C@H](NC(=O)OC[C@@H]1CCC(=O)N1Cc1ccccc1)C(=O)N[C@@H](C[C@@H]1CCNC1=O)C(O)S(=O)(=O)O (some centres undefined) | 0.09
CC(C)C[C@H](NC(=O)OC[C@@H]1CCC(=O)N1C[C@H]1C[C@@H]2CC[C@H]1C2)C(=O)N[C@@H](C[C@@H]1CCNC1=O)C(O)S(=O)(=O)O (some centres undefined) | 0.06
CC(C)C[C@H](NC(=O)OCC1CC(=O)N(Cc2cccc(C(F)(F)F)c2)C1)C(=O)N[C@@H](C[C@@H]1CCNC1=O)C(O)S(=O)(=O)O (some centres undefined) | 0.07
CC(C)C[C@H](NC(=O)OC[C@@H]1CCC(=O)N1CC1CCC(F)(F)CC1)C(=O)N[C@H](C=O)C[C@@H]1CCNC1=O | 0.06
CC(C)C[C@H](NC(=O)OC[C@@H]1CCC(=O)N1C[C@H]1C[C@@H]2C=C[C@H]1C2)C(=O)N[C@@H](C[C@@H]1CCNC1=O)C(O)S(=O)(=O)O (some centres undefined) | 0.06
CC(C)C[C@H](NC(=O)OCC1CCN(CC2CCCCC2)C1=O)C(=O)N[C@H](C=O)C[C@@H]1CCNC1=O (some centres undefined) | 0.31
CC(C)C[C@H](NC(=O)OC[C@@H]1CCC(=O)N1CCc1ccccc1)C(=O)N[C@H](C=O)C[C@@H]1CCNC1=O | 0.14
CC(C)C[C@H](NC(=O)OCC1CC(=O)N(Cc2ccco2)C1)C(=O)N[C@H](C=O)C[C@@H]1CCNC1=O (some centres undefined) | 0.07
CC(C)C[C@H](NC(=O)OC[C@@H]1CCC(=O)N1CCC1CCCCC1)C(=O)N[C@H](C=O)C[C@@H]1CCNC1=O | 0.09
CC(C)C[C@H](NC(=O)OCC1CCN(Cc2ccccc2)C1=O)C(=O)N[C@@H](C[C@@H]1CCNC1=O)C(O)S(=O)(=O)O (some centres undefined) | 0.06
CC(C)C[C@H](NC(=O)OCC1CCN(Cc2ccco2)C1=O)C(=O)N[C@@H](C[C@@H]1CCNC1=O)C(O)S(=O)(=O)O (some centres undefined) | 0.15
CC(C)C[C@H](NC(=O)OCC1CCN(C[C@H]2C[C@H]3CC[C@@H]2C3)C1=O)C(=O)N[C@@H](C[C@@H]1CCNC1=O)C(O)S(=O)(=O)O (some centres undefined) | 0.13
CC(C)C[C@H](NC(=O)OCC1CCN(C[C@H]2C[C@H]3CC[C@@H]2C3)C1=O)C(=O)N[C@H](C=O)C[C@@H]1CCNC1=O (some centres undefined) | 0.09
CC(C)C[C@H](NC(=O)OC[C@@H]1CCC(=O)N1Cc1ccco1)C(=O)N[C@H](C=O)C[C@@H]1CCNC1=O | 0.06
CC(C)C[C@H](NC(=O)OC[C@H]1CCC(=O)N1CC1CCCCC1)C(=O)N[C@@H](C[C@@H]1CCNC1=O)C(O)S(=O)(=O)O (some centres undefined) | 0.08
